This is an account of results in patent US8188098B2, “GPR119 receptor agonists” (Hoffmann-La Roche Inc., priority 2008, dated 2012).

For orientation: EC50 means the midpoint of the concentration-response curve. A low value points to greater potency.

This assay has as its target T1, GPR119 receptor (Mesocricetus auratus, UniProt A0A1U8CD06).
T1 construct: which endogenously express the GPR119 receptor; host or cells: HIT-T15 hamster pancreatic islet cells
T1 sequence (A0A1U8CD06 1-334): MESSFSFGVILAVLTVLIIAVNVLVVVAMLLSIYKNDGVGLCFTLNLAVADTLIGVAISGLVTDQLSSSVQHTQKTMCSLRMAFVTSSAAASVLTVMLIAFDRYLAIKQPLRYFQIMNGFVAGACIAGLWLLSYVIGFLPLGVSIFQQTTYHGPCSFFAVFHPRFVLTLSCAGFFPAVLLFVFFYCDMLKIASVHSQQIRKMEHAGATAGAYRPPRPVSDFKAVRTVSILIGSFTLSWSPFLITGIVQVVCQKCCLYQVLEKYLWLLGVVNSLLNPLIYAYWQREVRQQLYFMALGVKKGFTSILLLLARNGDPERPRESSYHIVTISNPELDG
Nature of the assay: cAMP assay in HIT-T15 hamster pancreatic islet cells (functional agonist activity). Type of assay: cell-based. The note with it: HIT-T15 cells endogenously expressing GPR119; 30 min at 25° C.; intracellular cAMP. The procedure: The functional agonist activities of compounds of the invention were characterized using a cAMP assay in HIT-T15 hamster pancreatic islet cells (American Type Culture Collection, Manassas, Va., USA) which endogenously express the GPR119 receptor. The cells were cultured in Kaighn's modification of Ham's F12 medium (Invitrogen Corporation, Carlsbad, Calif., USA) containing 10% horse serum, 2.5% FBS, and 1% Pen/Strep and grown in 225 cm^2 tissue culture flasks until they reached 75-85% confluence.
The cells were harvested 24 h prior to assay with 5 ml Versene®, washed with Kaighn/F12 medium and then plated into white 384-well plates (9000 cells/well) containing Kaighn/F12 medium. Prior to assay, the culture medium was replaced with a Kaighn/F12 medium without phenol red (50 μL/well) containing 0.5 mM 3-isobutyl-1-methylxanthine, 0.5 mg/ml BSA. The cells were incubated in the dark for 30 min at 25° C. in the absence or presence of varying concentrations of agonist (1 μL, 100% DMSO). The incubation media was discarded and replaced with the assay lysis buffer (50 μL/well) provided in the Tropix cAMP-Screen® kit (Applied Biosystems, Foster City, Calif., USA) and the plates incubated for 45 min at 37° C. The intracellular levels of cAMP generated in the HIT-T 15 cells were measured using the Tropix kit. In brief, 20 μL of the lysate was transferred into pre-coated antibody plates (384-well; Tropix kit) along with 10 μL of alkaline phosphatase conjugate and 20 μL of anti-cAMP antibody and the plates were incubated for 1 h at room temperature while shaking. The plates were then washed 5 times with wash buffer (70 μL) and tapped dry. CSPD®/Sapphire-II™ RTU substrate/enhancer solution (Applied Biosystems, Foster City, Calif., USA; 30 μL) was added and the plates were incubated for 45 min at room temperature while shaking. The signal generated was measured using a Wallac Victor V Luminometer (PerkinElmer Life And Analytical Sciences, Inc., Waltham, Mass., USA; 1 sec/well). EC50 values were calculated using the XLFit program (ID Business Solutions Ltd., Guildford, Surrey, UK).
Background: Cyclic AMP is a second messenger, typically raised through Gs and lowered through Gi signalling.
As for `Cc1cc(C(=O)N2CCC(n3ncc4c(Oc5ccc(S(C)(=O)=O)cc5)ncnc43)CC2)no1` [Example 153, {4-[4-(4-Methanesulfonyl-phenoxy)-pyrazolo[3,4-d]pyrimidin-1-yl]-piperidin-1-yl}-(5-methyl-isoxazol-3-yl)-methanone], the concentration for a half-maximal effect (EC50) is 4.4 µM.
Under `CC(C)CC(=O)N1CCC(n2ncc3c(Oc4ccc(S(C)(=O)=O)cc4)ncnc32)CC1` [Example 142, 1-{4-[4-(4-Methanesulfonyl-phenoxy)-pyrazolo[3,4-d]pyrimidin-1-yl]-piperidin-1-yl}-3-methyl-butan-1-one] stands 0.33 µM.
`Cc1ncccc1Oc1ncnc2c1cnn2C1CCN(C(=O)OC(C)(C)C)CC1` [Example 92, 4-[4-(2-Methyl-pyridin-3-yloxy)-pyrazolo[3,4-d]pyrimidin-1-yl]-piperidine-1-carboxylic acid tert-butyl ester] showed an EC50 of 0.17 µM.
The figure for `CC(C)C(=O)N1CCC(n2ncc3c(Oc4ccc(S(C)(=O)=O)cc4)ncnc32)CC1` [Example 136, 1-{4-[4-(4-Methanesulfonyl-phenoxy)-pyrazolo[3,4-d]pyrimidin-1-yl]-piperidin-1-yl}-2-methyl-propan-1-one] is 0.99 µM; for `CCOc1ccc(Oc2ncnc3c2cnn3C2CCN(C(=O)OC(C)C)CC2)c(F)c1` [Example 18, 4-[4-(4-Ethoxy-2-fluoro-phenoxy)-pyrazolo[3,4-d]pyrimidin-1-yl]-piperidine-1-carboxylic acid isopropyl ester] it is 0.38 µM; for `CC(=O)c1ccc(Oc2ncnc3c2cnn3C2CCN(C(=O)OC(C)(C)C)CC2)cc1C` [Example 65, 4-[4-(4-Acetyl-3-methyl-phenoxy)-pyrazolo[3,4-d]pyrimidin-1-yl]-piperidine-1-carboxylic acid tert-butyl ester] it is 0.31 µM.
The figure for `CC(C)(C)OC(=O)N1CCC(n2ncc3c(Oc4cc(F)c(F)cc4C#N)ncnc32)CC1` [Example 50, 4-[4-(2-Cyano-4,5-difluoro-phenoxy)-pyrazolo[3,4-d]pyrimidin-1-yl]-piperidine-1-carboxylic acid tert-butyl ester] is 0.69 µM; for `CC(C)(C)OC(=O)N1CCC(n2ncc3c(Oc4ccc(-n5cnnn5)cc4)ncnc32)CC1` [Example 83, 4-[4-(4-Tetrazol-1-yl-phenoxy)-pyrazolo[3,4-d]pyrimidin-1-yl]-piperidine-1-carboxylic acid tert-butyl ester] it is 1.6 µM; for `CS(=O)(=O)c1ccc(Oc2ncnc3c2cnn3C2CCN(Cc3ccccc3O)CC2)cc1` [Example 164, 2-{4-[4-(4-Methanesulfonyl-phenoxy)-pyrazolo[3,4-d]pyrimidin-1-yl]-piperidin-1-ylmethyl}-phenol] it is 0.36 µM.
As to `CS(=O)(=O)c1ccc(Oc2ncnc3c2cnn3C2CCN(Cc3cccc(C#N)c3)CC2)cc1` [Example 168, 3-{4-[4-(4-Methanesulfonyl-phenoxy)-pyrazolo[3,4-d]pyrimidin-1-yl]-piperidin-1-ylmethyl}-benzonitrile], the midpoint of the response, the EC50, lay at 1.5 µM.
In the case of `CC(C)(C)OC(=O)N1CCC(n2ncc3c(Oc4ccccc4F)ncnc32)CC1` [Example 32, 4-[4-(2-Fluoro-phenoxy)-pyrazolo[3,4-d]pyrimidin-1-yl]-piperidine-1-carboxylic acid tert-butyl ester], a half-maximal effect (EC50) was put at 0.19 µM. This EC50 is about 7.9-fold lower than that of the compound before.
The figure for `CCCCOC(=O)N1CCC(n2ncc3c(Oc4cccnc4C)ncnc32)CC1` [Example 104, 4-[4-(2-Methyl-pyridin-3-yloxy)-pyrazolo[3,4-d]pyrimidin-1-yl]-piperidine-1-carboxylic acid butyl ester] is 0.85 µM; for `CC(C)(C)OC(=O)N1CCC(n2ncc3c(Oc4c(C#N)ccc(F)c4F)ncnc32)CC1` [Example 49, 4-[4-(6-Cyano-2,3-difluoro-phenoxy)-pyrazolo[3,4-d]pyrimidin-1-yl]-piperidine-1-carboxylic acid tert-butyl ester] it is 0.048 µM.
`CS(=O)(=O)c1ccc(Oc2ncnc3c2cnn3C2CCN(C(=O)OC3CCCC3)CC2)c(F)c1` [Example 120, 4-[4-(2-Fluoro-4-methanesulfonyl-phenoxy)-pyrazolo[3,4-d]pyrimidin-1-yl]-piperidine-1-carboxylic acid cyclopentyl ester] came in with an EC50 of 0.031 µM. Compared with the last compound, the EC50 is about 1.5-fold lower.
Under `CS(=O)(=O)c1ccc(Oc2ncnc3c2cnn3C2CCN(Cc3ccc(Cl)cc3)CC2)cc1` [Example 160, 1-[1-(4-Chloro-benzyl)-piperidin-4-yl]-4-(4-methanesulfonyl-phenoxy)-1H-pyrazolo[3,4-d]pyrimidine] stands 0.57 µM; under `Cn1nc(Oc2ncnc3c2cnn3C2CCN(C(=O)OC(C)(C)C)CC2)ccc1=O` [Example 102, 4-[4-(1-Methyl-6-oxo-1,6-dihydro-pyridazin-3-yloxy)-pyrazolo[3,4-d]pyrimidin-1-yl]-piperidine-1-carboxylic acid tert-butyl ester], 0.47 µM.
On to `CCOc1ccc(Oc2ncnc3c2cnn3C2CCN(C(=O)OC(C)(C)C)CC2)c(F)c1` [Example 43, 4-[4-(4-Ethoxy-2-fluoro-phenoxy)-pyrazolo[3,4-d]pyrimidin-1-yl]-piperidine-1-carboxylic acid tert-butyl ester], for which a half-maximal effect (EC50) was put at 0.018 µM. Compared with the last compound, the EC50 is about 26-fold lower.
The figure for `Cc1nc(-n2cncn2)ccc1Oc1ncnc2c1cnn2C1CCN(C(=O)OC(C)C)CC1` [Example 30, 4-[4-(2-Methyl-6-[1,2,4]triazol-1-yl-pyridin-3-yloxy)-pyrazolo[3,4-d]pyrimidin-1-yl]-piperidine-1-carboxylic acid isopropyl ester] is 0.86 µM.
The figure for `CC(C)OC(=O)N1CCC(n2ncc3c(Oc4ccc(S(C)(=O)=O)cc4F)ncnc32)CC1` [Example 23, 4-[4-(2-Fluoro-4-methanesulfonyl-phenoxy)-pyrazolo[3,4-d]pyrimidin-1-yl]-piperidine-1-carboxylic acid isopropyl ester] is 0.11 µM.
On to `Cc1ncccc1Oc1ncnc2c1cnn2C1CCN(C(=O)OCC(C)C)CC1` [Example 107, 4-[4-(2-Methyl-pyridin-3-yloxy)-pyrazolo[3,4-d]pyrimidin-1-yl]-piperidine-1-carboxylic acid isobutyl ester], for which the EC50 turned out to be 0.19 µM. This EC50 lies about 1.7-fold higher than the previous one.
Under `Cc1nc(Oc2ccc(S(C)(=O)=O)cc2)c2cnn(C3CCN(C(=O)OC(C)(C)C)CC3)c2n1` [Example 175, 4-[4-(4-Methanesulfonyl-phenoxy)-6-methyl-pyrazolo[3,4-d]pyrimidin-1-yl]-piperidine-1-carboxylic acid tert-butyl ester] stands 0.028 µM.
On to `Cc1nn(C2CCN(C(=O)OC(C)C)CC2)c2ncnc(Oc3ccc(S(C)(=O)=O)cc3)c12` [Example 22, 4-[4-(4-Methanesulfonyl-phenoxy)-3-methyl-pyrazolo[3,4-d]pyrimidin-1-yl]-piperidine-1-carboxylic acid isopropyl ester], for which the concentration for a half-maximal effect (EC50) was 0.21 µM.
As to `CC(C)(C)OC(=O)N1CCC(n2ncc3c(Oc4cccc(F)c4)ncnc32)CC1` [Example 33, 4-[4-(3-Fluoro-phenoxy)-pyrazolo[3,4-d]pyrimidin-1-yl]-piperidine-1-carboxylic acid tert-butyl ester], the EC50 turned out to be 0.6 µM.
On to `CC(C)OC(=O)N1CCC(n2ncc3c(Oc4ccccc4C#N)ncnc32)CC1` [Example 19, 4-[4-(2-Cyano-phenoxy)-pyrazolo[3,4-d]pyrimidin-1-yl]-piperidine-1-carboxylic acid isopropyl ester], for which the 50% effective concentration (EC50) came out at 0.71 µM.
On to `Cc1ncccc1Oc1ncnc2c1cnn2C1CCN(C(=O)OC2CCCCC2)CC1` [Example 125, 4-[4-(2-Methyl-pyridin-3-yloxy)-pyrazolo[3,4-d]pyrimidin-1-yl]-piperidine-1-carboxylic acid cyclohexyl ester], for which the response was half-maximal at 0.57 µM (EC50).
The compound `CC(C)OC(=O)N1CCC(n2ncc3c(Oc4ccc(=O)n(C)n4)ncnc32)CC1` [Example 31, 4-[4-(1-Methyl-6-oxo-1,6-dihydro-pyridazin-3-yloxy)-pyrazolo[3,4-d]pyrimidin-1-yl]-piperidine-1-carboxylic acid isopropyl ester] had an EC50 of 3.5 µM.
